One data set has as its system C57Bl/6 mice. The data set can be described thus: Lack of precipitated withdrawal from oxycodone. The settings on record: for total withdrawal signs: oxycodone mice.
The target of the next data set is SERT (Homo sapiens, UniProt P31645). The class given is binding.
The target in the next data set is D1 (Homo sapiens, UniProt P21728). The class given is binding.
A further data set addresses D2 (Homo sapiens, UniProt P14416). The format is binding.
For the next data set, the target named is 5-HT2A (Homo sapiens, UniProt P28223). The format is binding.
Chain of 5-HT2A (P28223 whole entry): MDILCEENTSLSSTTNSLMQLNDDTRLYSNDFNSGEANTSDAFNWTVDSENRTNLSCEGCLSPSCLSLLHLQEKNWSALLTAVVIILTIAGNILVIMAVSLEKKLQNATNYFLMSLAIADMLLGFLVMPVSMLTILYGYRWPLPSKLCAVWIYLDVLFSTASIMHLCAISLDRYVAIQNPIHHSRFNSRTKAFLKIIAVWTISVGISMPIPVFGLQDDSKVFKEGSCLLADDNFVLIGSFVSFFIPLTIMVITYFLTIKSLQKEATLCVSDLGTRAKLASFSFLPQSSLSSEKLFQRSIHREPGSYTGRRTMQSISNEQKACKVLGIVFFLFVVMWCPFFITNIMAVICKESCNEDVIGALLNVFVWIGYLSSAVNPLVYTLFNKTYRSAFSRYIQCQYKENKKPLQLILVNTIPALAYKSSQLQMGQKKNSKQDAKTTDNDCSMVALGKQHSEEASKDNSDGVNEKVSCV
The next data set concerns C57BL/6J mice. The settings on record: mouse, in vivo.

pKi: −log10 of the molar value.

Chain of D2 (P14416 1-414 isoform P14416-2): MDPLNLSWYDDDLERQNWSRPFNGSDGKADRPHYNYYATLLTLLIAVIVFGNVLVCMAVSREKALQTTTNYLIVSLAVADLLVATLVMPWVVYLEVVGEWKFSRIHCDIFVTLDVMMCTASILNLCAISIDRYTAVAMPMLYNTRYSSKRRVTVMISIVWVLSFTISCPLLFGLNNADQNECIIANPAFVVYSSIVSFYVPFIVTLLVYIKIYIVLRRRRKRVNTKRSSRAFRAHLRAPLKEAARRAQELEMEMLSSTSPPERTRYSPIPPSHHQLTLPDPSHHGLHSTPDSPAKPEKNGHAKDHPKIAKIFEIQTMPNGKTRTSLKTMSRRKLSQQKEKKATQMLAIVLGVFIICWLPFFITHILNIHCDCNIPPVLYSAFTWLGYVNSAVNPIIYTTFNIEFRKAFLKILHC
Chain of D1 (P21728 whole entry): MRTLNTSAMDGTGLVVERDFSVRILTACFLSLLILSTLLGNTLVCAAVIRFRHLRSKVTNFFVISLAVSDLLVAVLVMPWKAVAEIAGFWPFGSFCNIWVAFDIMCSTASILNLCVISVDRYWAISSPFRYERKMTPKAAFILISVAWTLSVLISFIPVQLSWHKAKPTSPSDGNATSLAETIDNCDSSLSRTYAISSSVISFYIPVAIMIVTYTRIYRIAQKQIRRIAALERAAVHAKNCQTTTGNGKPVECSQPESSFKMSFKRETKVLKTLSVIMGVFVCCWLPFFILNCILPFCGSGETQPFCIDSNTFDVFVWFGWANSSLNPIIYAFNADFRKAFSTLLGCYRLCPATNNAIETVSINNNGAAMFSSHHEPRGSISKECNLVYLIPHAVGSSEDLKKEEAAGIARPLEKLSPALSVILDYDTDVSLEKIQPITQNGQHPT
Chain of SERT (P31645 whole entry, species assumed): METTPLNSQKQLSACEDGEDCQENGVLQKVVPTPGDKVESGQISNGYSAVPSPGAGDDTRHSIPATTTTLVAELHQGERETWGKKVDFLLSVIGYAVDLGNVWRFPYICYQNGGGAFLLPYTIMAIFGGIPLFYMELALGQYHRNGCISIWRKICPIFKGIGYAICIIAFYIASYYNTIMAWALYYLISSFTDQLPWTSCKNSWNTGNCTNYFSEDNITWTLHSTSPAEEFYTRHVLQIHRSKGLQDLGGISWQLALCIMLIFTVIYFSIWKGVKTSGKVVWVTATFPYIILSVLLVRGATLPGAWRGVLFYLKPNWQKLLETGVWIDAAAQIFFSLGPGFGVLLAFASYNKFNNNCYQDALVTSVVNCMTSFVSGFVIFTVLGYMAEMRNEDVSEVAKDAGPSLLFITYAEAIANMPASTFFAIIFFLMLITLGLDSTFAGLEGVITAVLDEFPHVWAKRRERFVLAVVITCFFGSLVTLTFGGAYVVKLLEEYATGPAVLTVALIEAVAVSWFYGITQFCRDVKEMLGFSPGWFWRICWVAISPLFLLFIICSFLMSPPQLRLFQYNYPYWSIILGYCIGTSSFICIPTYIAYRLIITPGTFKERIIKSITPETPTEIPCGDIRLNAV

`O=C1CN2c3c(cccc3[C@@H]3CN(CCCOc4ccc(F)cc4)CC[C@@H]32)N1` [Example 1, (6bR,10aS)-8-(3-(4-fluorophenoxy)propyl)-6b,7,8,9,10,10a-hexahydro-1H-pyrido[3′,4′:4,5]pyrrolo[1,2,3-de]quinoxalin-2(3H)-one]: the “somatic signs or loss of body weight” value with C57Bl/6 mice (chronic saline, 17.8 mg/kg s.c., relative to vehicle (p>0.05)) is listed as “does not produce any significant effects”. Besides, the “number of paw tremors or jumps” value in the data set with C57Bl/6 mice (mice chronically administered oxycodone, doses <10 mg/kg s.c., vs vehicle) is “do not differ from mice administered vehicle”. The body weight loss entry in the data set with C57Bl/6 mice (mice receiving oxycodone chronically, <10 mg/kg) is “does not induce further body weight loss”. The total withdrawal signs result with C57Bl/6 mice (at 10 mg/kg, p<0.05, mainly wet dog shakes) was “significantly more total withdrawal signs”; in the data set on C57Bl/6 mice (escalating doses (3, 10, 17.8 mg/kg s.c.), p<0.0001), “induced greater total withdrawal signs”.

In general, pKi refers to the negative decadic logarithm of the Ki, by convention in mol/L. The low end stands for a large Ki, the high end for a small Ki. As for `O=C1CN2c3c(cccc3[C@@H]3CN(CCCc4n[nH]c5cc(F)ccc45)CC[C@@H]32)N1` [Example 2, (6bR,10aS)-8-(3-(6-fluoro-1H-indazol-3-yl)propyl)-6b,7,8,9,10,10a-hexahydro-1H-pyrido[3′,4′:4,5]pyrrolo[1,2,3-de]quinoxalin-2(3H)-one], the negative-log Ki (pKi) was 6.27 on SERT, 8.28 on D1, 7.82 at D2 and 8.59 on 5-HT2A.

`O=C1CN2c3c(cccc3[C@@H]3CN(CCCc4noc5cc(F)ccc45)CC[C@@H]32)N1` [Example 3, (6bR,10aS)-8-(3-(6-fluorobenzo[d]isoxazol-3-yl)propyl)-6b,7,8,9,10,10a-hexahydro-1H-pyrido[3′,4′:4,5]pyrrolo[1,2,3-de]quinoxalin-2(3H)-one]: the pKi at D1 was 7.89; at D2, 7.08; at 5-HT2A it was 8.51.

`C=CCN1CC[C@]23c4c5ccc(O)c4O[C@H]2C(=O)CC[C@@]3(O)[C@H]1C5` [Naloxone]: in the data set with C57BL/6J mice, the Jumps is listed as 0, the “Paw Tremors” value was found to be 0.87, the “Total Number of Signs” value is recorded as 2.2 and the “body weight loss” value is reported as 0.5%.

The record behind these values is patent US20240415832A1 (priority 2021, published 2024).
